Test results as given in US7488759B2, “Malic acid addition salts of terbinafine” (Novartis AG, priority 2001, dated 2009).
Counter-ions that a name gives are not always drawn. Like-named read-outs stand apart in the source and are kept apart here. Values belong to the compound of their own block, whether it stands above or below them.

How the values were obtained:
[1] = solubility in water and organic solvents; type: physicochemical; conditions: for solubility: 25 °C
Text: They thus form crystals more readily than the hydrochloride or the free base. […] Polymorphs have different dissolution rates, milling behaviour and stability, e.g. in galenical forms where the pharmaceutically active compound is in solid form, such as tablets or suspensions, and they influence bioavailability. The surprising presence of polymorphism is therefore advantageous in terms of improved processability, such as with polymorph particularly stable thermodynamically, in formulations with compound in solid form, e.g. tablets or suspensions, or with polymorph having a particularly high dissolution rate or solubility, in formulations with dissolved compound, e.g. nail lacquers. The compounds of the invention are therefore better processable for e.g. large scale tablet formulation; they also have favourable penetration/permeation properties and can thus readily be formulated into topical forms, such as nail lacquers. […] Further, they are non-hygroscopic, thus providing stable formulations while minimizing the risk of intrinsic chemical breakdown.

[2] = in vitro nail penetration/permeation assay (modified Franz cell); type: in vitro ADME, human; conditions: 72 hours, 1% solution
Protocol: Human cadaveric toe nails are used in a Franz cell (FIG. 1) modified to accept cadaveric human toenails by having a pair of flexible rings made of a silicone elastomer (PDMS) having good sealant properties to adequately mount hard nails, using liquid scintillation counting (LSC) (picogram limit of detection) to measure the increase in radioactivity in the acceptor compartment. Each measurement is effected in triplicate. 90 randomly selected nails are exposed for 72 hours to a solution of 100 μl of ^14C-labelled terbinafine hydrochloride or terbinafine L-(−)-hydrogen malate (form A) solution [25 μBq/ml; 1% active product; 5% 1,2-propylene glycol; 2% Cetomacrogol-1000® (polyoxyethylene-glycol-1000-monoacetylether); 25% ethanol 94%; 67% distilled water] (w/w). Each area of the nail exposed to the formulation has a 9 mm diameter (about 64 mm^2). Exposure is effected under occlusive (chamber closed to air) and non-occlusive (chamber open to air) conditions.
The radiolabelled product is detectable in the buffer-filled receptor chamber from about 8 hours of incubation. Its concentration in the receptor chamber as measured by LSC increases with incubation time and concentration of applied formulation. A total of 24 penetration chambers are used in parallel. Each formulation is measured in triplicate.

[3] = pharmacokinetic study in Beagle dogs, oral capsules; type: in vivo; conditions: 7 Beagle dogs, oral capsule 62.5 mg base equivalent
Protocol: This appears i.a. from a pharmacokinetic study in animals involving 7 Beagle dogs weighing about 10 kg, aged about 5 years, upon oral administration of capsules prepared by mixing active terbinafine salt substance [hydrochloride or L-(−)-hydrogen malate; 62.5 mg base equivalent per capsule] with lactose in a ratio of 1:1 w/w and filling into appropriate hard gelatine capsules (particle size distribution similar for both salts).

[4] = molecular target: CYP2D6 (Homo sapiens, UniProt P10635); conditions: cited from earlier work
Sequence of CYP2D6 (P10635 whole entry): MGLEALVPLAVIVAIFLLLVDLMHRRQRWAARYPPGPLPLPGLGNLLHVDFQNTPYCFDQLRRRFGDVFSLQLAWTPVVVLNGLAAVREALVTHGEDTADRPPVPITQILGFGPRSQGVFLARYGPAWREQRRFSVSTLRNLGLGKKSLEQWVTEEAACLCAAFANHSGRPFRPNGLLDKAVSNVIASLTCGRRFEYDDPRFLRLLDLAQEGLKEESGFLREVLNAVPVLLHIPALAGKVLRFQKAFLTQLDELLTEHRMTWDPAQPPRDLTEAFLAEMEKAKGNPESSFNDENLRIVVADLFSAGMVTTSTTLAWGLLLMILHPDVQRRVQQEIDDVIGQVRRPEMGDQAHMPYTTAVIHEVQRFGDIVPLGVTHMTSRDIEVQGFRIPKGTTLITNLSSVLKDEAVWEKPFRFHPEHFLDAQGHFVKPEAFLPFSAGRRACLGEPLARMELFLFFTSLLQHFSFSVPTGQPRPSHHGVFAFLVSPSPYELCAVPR

[5] = parameters: AUC increase factor in steady state vs single dose: unit not given beside the values; conditions: cited from earlier work
[6] = ethanol, organic solvent or mixture, read-out: solubility in ethanol
[7] = Beagle, dog, plasma, po, 62.5 mg
[8] = human subjects, single 250 mg terbinafine dose
[9] = steady state after several days dosing

- solubility [1, 6]: > 50 mg/mL
- solubility ([1]; ethyl acetate, organic solvent or mixture, read-out: solubility in ethyl acetate): ~17 mg/mL
- solubility ([1]; water, water, read-out: solubility in water): ~7 mg/mL
Compound: CN(C/C=C/C#CC(C)(C)C)Cc1cccc2ccccc12 (racemic) [Example 5, Terbinafine DL-(±)-hydrogen malate]

- amount recovered in receptor chamber (permeation) ([2]; non-occlusive conditions): ~41 ng
- amount recovered in receptor chamber (permeation) ([2]; occlusive conditions): about 63 ng
- solubility in ethyl acetate ([1]; 25°): > 30 mg/mL
- solubility in water ([1]; 25°): ~12 mg/mL
- solubility in ethanol ([1]; 25°, listed as Example 3): > 50 mg/mL
- solubility ([1]; aqueous with cosolvent or surfactant or cyclodextrin, solubility, read-out: solubility in ethane/water 2:8 v/v): > 30 mg/mL
- solubility [1, 6]: > 30 mg/mL
Compound: CN(C/C=C/C#CC(C)(C)C)Cc1cccc2ccccc12 [Example 1, Terbinafine L-(−)-hydrogen malate (polymorph form A)]

- solubility in water ([1]; 25°): 15 mg/mL
Compound: CN(C/C=C/C#CC(C)(C)C)Cc1cccc2ccccc12 [Example 2, Terbinafine L-(−)-hydrogen malate (polymorph form B)]

- solubility in water ([1]; 25°): ~7 mg/mL
Compound: CN(C/C=C/C#CC(C)(C)C)Cc1cccc2ccccc12 [Example 4, Terbinafine D-(+)-hydrogen malate]

- coefficient of variation (CV) of AUC, inter-animal variability [3]: 30%
- AUC [3, 7]: 392 ng·h/mL
- Cmax [3, 7]: 134 ng/mL
- solubility in ethyl acetate ([1]; 25°): > 30 mg/mL
- solubility in water ([1]; 25°): 12 to 15 mg/mL
Compound: CN(C/C=C/C#CC(C)(C)C)Cc1cccc2ccccc12 [L-(−)-hydrogen malate, terbinafine L-(−)-hydrogen malate]

Compound: CN(C/C=C/C#CC(C)(C)C)Cc1cccc2ccccc12 [Terbinafine, (E)-N-methyl-6,6-dimethyl-N-(1-naphthylmethyl)hept-2-en-4-inyl-1-amine]
- inhibition of CYP2D6 [4]: potent inhibitor

- coefficient of variation (CV) of AUC, inter-animal variability ([3]; hydrochloride): 39%
- mean AUC ([3]; hydrochloride): 348 ng·h/mL
- mean Cmax ([3]; hydrochloride): 146 ng/mL
Compound: CN(C/C=C/C#CC(C)(C)C)Cc1cccc2ccccc12 [terbinafine hydrochloride]
- increase in AUC with a fat-rich meal ([5]; administered with a fat-rich meal): 42%
- Peak drug plasma concentration (Cmax) [5, 8]: about 1.3 μg/ml
- area under the curve over 24 hours (AUC) [5, 8]: about 4.76 μg·hour/ml
- effective half-life ([5]; human, in vivo): about 36 hours
- reduction of clearance ([5]; patients with renal impairment (creatinine clearance ≤50 ml/min) or hepatic cirrhosis): approximately 50%
- AUC increase factor in steady state vs single dose [5, 9]: 2.5
- Cmax higher in steady state vs single dose [5, 9]: 25%
